In publication PMC8815882, “Screening the pandemic response box identified benzimidazole carbamates, Olorofim and ravuconazole as promising drug candidates for the treatment of eumycetoma” (PLoS Neglected Tropical Diseases, 2022):
Like-named read-outs stand apart in the source and are kept apart here.

Tested on: M. mycetomatis genome strain MM55
Assay: CLSI M38-A2 based in vitro susceptibility screening (XTT or resazurin), growth at fixed concentration
Assay type: cell-based, Madurella mycetomatis
Details: Madurella mycetomatis
[1] = 25 uM, mean of replicates, read-out: Percentage survival at 25um, 25 uM mean
[2] = 25 uM, replicate A, read-out: Percentage survival at 25um, 25 um A
[3] = 25 uM, replicate B, read-out: Percentage survival at 25um, 25 uM B
[4] = 25 uM, replicate C, read-out: Percentage survival at 25um, 25 uM C
[5] = mean of replicates, read-out: Percentage survival at 100um, 100 uM mean
[6] = replicate 1, read-out: Percentage survival at 100um, 100 uM A
[7] = replicate 2, read-out: Percentage survival at 100um, 100 uM A
[8] = replicate 3, read-out: Percentage survival at 100um, 100 uM A
[9] = 25 uM, mean of three, M. mycetomatis MM55, read-out: Percentage survival at 25um, 25 uM mean
[10] = 25 uM, replicate A, M. mycetomatis MM55, read-out: Percentage survival at 25um, 25 um A
[11] = 25 uM, replicate B, M. mycetomatis MM55, read-out: Percentage survival at 25um, 25 uM B
[12] = 25 uM, replicate C, M. mycetomatis MM55, read-out: Percentage survival at 25um, 25 uM C
[13] = mean of three, M. mycetomatis MM55, read-out: Percentage survival at 100um, 100 uM mean
[14] = replicate 1, M. mycetomatis MM55, read-out: Percentage survival at 100um, 100 uM A (first replicate column)
[15] = replicate 2, M. mycetomatis MM55, read-out: Percentage survival at 100um, 100 uM A (second replicate column)
[16] = replicate 3, M. mycetomatis MM55, read-out: Percentage survival at 100um, 100 uM A (third replicate column)
[17] = read-out: Percentage survival at 25um, 25 uM B
[18] = read-out: Percentage survival at 25um, 25 uM C
[19] = read-out: Percentage survival at 25um, 25 uM mean
[20] = 25 uM, mean of three replicates, read-out: Percentage survival at 25um, 25 uM mean
[21] = mean of three replicates, read-out: Percentage survival at 100um, 100 uM mean
[22] = replicate 1, read-out: Percentage survival at 100um, 100 uM A (first replicate column)
[23] = replicate 2, read-out: Percentage survival at 100um, 100 uM A (second replicate column)
[24] = replicate 3, read-out: Percentage survival at 100um, 100 uM A (third replicate column)
[25] = 25 uM, mean, read-out: Percentage survival at 25um, 25 uM mean
[26] = mean, read-out: Percentage survival at 100um, 100 uM mean
[27] = replicate (first column), read-out: Percentage survival at 100um, 100 uM A
[28] = replicate (second column), read-out: Percentage survival at 100um, 100 uM A
[29] = replicate (third column), read-out: Percentage survival at 100um, 100 uM A

SMILES	activity at 25 µM [1]	activity at 25 µM [2]	activity at 25 µM [3]	activity at 25 µM [4]	activity at 100 µM [5]	activity at 100 µM [6]	activity at 100 µM [7]	activity at 100 µM [8]	also measured
CN(C)[C@@H]1C(=O)C(C(N)=O)=C(O)[C@@]2(O)C(=O)C3=C(O)c4c(O)c(NC(=O)CN5CCCC5)cc(F)c4C[C@H]3C[C@@H]12 [MMV1578574]	74.6%	58%	94%	72%	93%	92.7%	96.8%	89.4%	–
CC(=O)O[C@H]1C[C@@]2(C)[C@@H](C[C@@H](O)[C@H]3[C@@]4(C)CC[C@@H](O)[C@@H](C)[C@@H]4CC[C@@]32C)/C1=C(\CCC=C(C)C)C(=O)O [MMV1578575]	–	–	–	–	–	–	–	–	activity at 25 µM [9]: 83.8%; activity at 25 µM [10]: 96.4%; activity at 25 µM [11]: 83.3%; activity at 25 µM [12]: 71.6%; activity at 100 µM [13]: 84.3%; activity at 100 µM [14]: 78.5%; Percent fungal survival at 100 µM [15]: 89.6%; activity at 100 µM [16]: 84.8%
O=C(Cc1ccccc1F)Nc1nc2ccccc2[nH]1 [MMV1578576]	70.6%	73.4%	74.5%	63.8%	78.7%	102%	65.1%	69.2%	–
O=C(NC12CC3CC(CC(C3)C1)C2)c1cc2ccccc2[nH]1 [MMV1578577]	–	79.8%	–	–	65.6%	59.6%	65.1%	72.1%	activity at 25 µM [17]: 67.1%; activity at 25 µM [18]: 75.7%; activity at 25 µM [19]: 74.2%
O=C(Nc1nnc(-c2ccccc2)o1)c1ccc(F)cc1 [MMV1578578]	–	–	–	–	–	–	–	–	activity at 25 µM [9]: 24.9%; activity at 25 µM [10]: 69.5%; activity at 25 µM [11]: 1.3%; activity at 25 µM [12]: 3.74%; activity at 100 µM [13]: 0.7%; activity at 100 µM [14]: -1.02%; Percent fungal survival at 100 µM [15]: 1.69%; activity at 100 µM [16]: 1.43%
COc1ccc(C)cc1NC(=O)c1ccc(S(=O)(=O)N2CCCCC2)cc1 [MMV1578579]	–	–	–	–	–	–	–	–	activity at 25 µM [9]: 72.2%; activity at 25 µM [10]: 96.4%; activity at 25 µM [11]: 63%; activity at 25 µM [12]: 57.3%; activity at 100 µM [13]: 71.4%; activity at 100 µM [14]: 69.7%; Percent fungal survival at 100 µM [15]: 77.1%; activity at 100 µM [16]: 67.5%
CCCCOC(=O)Nc1cc2nc(C3CCCCC3)[nH]c2cc1N(CC)CC [MMV1578842]	88.1%	97.2%	93.7%	73.4%	93.8%	93.6%	90.8%	96.9%	–
O=c1cc(NCCCN[C@@H]2CCOc3c(Br)cc(Br)cc32)[nH]c2ccsc12 [MMV1578884]	96.9%	100%	95.5%	94.6%	88.3%	93%	86.8%	85.3%	–
O=c1nc(N2CCN(CC3CCCCC3)CC2)sc2c([N+](=O)[O-])cc(C(F)(F)F)cc12 [MMV1578885]	–	84.1%	98%	89.5%	–	–	–	–	activity at 25 µM [20]: 90.5%; activity at 100 µM [21]: 82.7%; activity at 100 µM [22]: 87.8%; Percent fungal survival at 100 µM [23]: 75.6%; activity at 100 µM [24]: 84.8%
c1ccc(Cn2c(-c3ccccn3)nc3ccccc32)cc1 [MMV1578886]	60.6%	64.1%	69.2%	48.7%	7.34%	12%	5.19%	4.84%	–
Fc1ccc2c(/C=C/c3cccnc3)c[nH]c2c1 [MMV1578889]	–	86.3%	56.6%	87.7%	–	–	–	–	activity at 25 µM [25]: 76.9%; activity at 100 µM [26]: 58.2%; activity at 100 µM [27]: 83.4%; activity at 100 µM [28]: 19.8%; activity at 100 µM [29]: 71.5%
O=C(Cn1cnc2ccccc2c1=O)Nc1ccccc1 [MMV1578891]	–	84%	82.2%	74.7%	–	–	–	–	activity at 25 µM [20]: 80.3%; activity at 100 µM [21]: 83.9%; activity at 100 µM [22]: 90.8%; Percent fungal survival at 100 µM [23]: 79.4%; activity at 100 µM [24]: 81.6%
CCOC(=O)N1CCN(c2ccc(Cl)cc2)CC1 [MMV1578898]	83.5%	91.8%	91.8%	66.9%	47.7%	38.1%	63.1%	42%	–
CCCC(=O)OCCc1ccccc1 [MMV1578899]	–	–	–	–	–	–	–	–	activity at 25 µM [9]: 85.3%; activity at 25 µM [10]: 87.9%; activity at 25 µM [11]: 88.2%; activity at 25 µM [12]: 79.8%; activity at 100 µM [13]: 87.4%; activity at 100 µM [14]: 89.3%; Percent fungal survival at 100 µM [15]: 88.3%; activity at 100 µM [16]: 84.5%
CC(Oc1ccc(Cl)cc1Cl)C(=O)NCc1ccc2c(c1)OCO2 (stereo not drawn) [MMV1578925]	–	53.9%	36.1%	54.9%	–	–	–	–	activity at 25 µM [25]: 48.3%; activity at 100 µM [26]: 70.2%; activity at 100 µM [27]: 65.3%; activity at 100 µM [28]: 69%; activity at 100 µM [29]: 76.3%
C=C(C)n1c(=O)n(Cc2ccccc2C)c2ccccc21 [MMV1579354]	–	–	–	–	–	–	–	–	activity at 25 µM [9]: 79.6%; activity at 25 µM [10]: 93.1%; activity at 25 µM [11]: 79.3%; activity at 25 µM [12]: 66.5%; activity at 100 µM [13]: 9.54%; activity at 100 µM [14]: 2.4%; Percent fungal survival at 100 µM [15]: 21.4%; activity at 100 µM [16]: 4.84%
O=c1cc(OCc2ccccc2)ccn1Cc1ccccc1 [MMV1579775]	–	–	–	–	–	–	–	–	activity at 25 µM [9]: 71.3%; activity at 25 µM [10]: 65.3%; activity at 25 µM [11]: 61.6%; activity at 25 µM [12]: 87.1%; activity at 100 µM [13]: 63.4%; activity at 100 µM [14]: 61.9%; Percent fungal survival at 100 µM [15]: 72.8%; activity at 100 µM [16]: 55.4%
NS(=O)(=O)c1ccc(NC(=O)NC(c2ccccc2)c2ccccc2)cc1 [MMV1579776]	–	–	–	–	–	–	–	–	activity at 25 µM [10]: 95.1%; activity at 100 µM [13]: 97%; activity at 100 µM [14]: 103%; activity at 100 µM [15]: 98.7%; activity at 100 µM [16]: 89%; activity at 25 µM [17]: 101%; activity at 25 µM [18]: 86.7%; activity at 25 µM [19]: 94.2%
O=[N+]([O-])c1cn(Cc2nc(O)nc(O)c2Br)cn1 [MMV1579777]	94.1%	98.9%	96.8%	86.6%	87.1%	96.7%	83.9%	80.7%	–
C[C@H](NC(CC(=O)c1ccccc1C(F)(F)F)C(=O)O)c1ccccc1 (stereo partly drawn) [MMV1579778]	–	98.1%	92%	90.5%	–	–	–	–	activity at 25 µM [20]: 93.5%; activity at 100 µM [21]: 87.3%; activity at 100 µM [22]: 91.1%; Percent fungal survival at 100 µM [23]: 82.8%; activity at 100 µM [24]: 88.1%
CC(=O)Nc1cc(NS(=O)(=O)c2ccc(Cl)cc2)cc2c(Cl)n[nH]c12 [MMV1579779]	83.8%	80.2%	89.2%	82.1%	82.2%	78.5%	74.6%	93.4%	–
CC(C)n1cnc2c(NCc3ccccc3)nc(NCc3ccccc3)nc21 [MMV1579780]	62.7%	64.2%	61.7%	62%	61%	60.4%	63.1%	59.6%	–
CC(Cc1ccccc1)C(=O)Nc1ccc(Cl)cc1C(=O)O (stereo not drawn) [MMV1579781]	–	104%	93.1%	80.7%	–	–	–	–	activity at 25 µM [20]: 92.5%; activity at 100 µM [21]: 85.9%; activity at 100 µM [22]: 87.4%; Percent fungal survival at 100 µM [23]: 82.1%; activity at 100 µM [24]: 88.1%
Cc1cccc(CC(=O)N[C@H]2CCOC2=O)c1 [MMV1579782]	94%	95.3%	93.9%	92.9%	90.9%	95.1%	88.4%	89.2%	–
